Series [1] can be described thus: Urine concentrations in humans after a single oral dose. Format: in vivo, human. The following applies: see Example 2.
For a further series, the system named is conscious SCI rats. The following applies: Beauval et al., 2015; cited from earlier work.
The subject of series [2] is rhythmic bladder contractions (RBC) in anesthetized female rats. The series is described as follows: Isovolumetric model: rhythmic bladder contractions (RBC), cystometry. Format: in vivo, rat. The following applies: for RBC amplitude, basal / RBC frequency, basal: basal period −30/0 min before i.v. administration, group mean. An excerpt:
In rats, under isovolumetric condition, bladder distension induced rhythmic bladder contractions (RBC) (Aizawa et al, (2015) Effects of L-arginine, mirabegron, and oxybutynin on the primary bladder afferent nerve activities synchronized with reflexic, rhythmic bladder contractions in the rat. Neurourology & Urodynamics 34:368-374). This isovolumetric model allows the evaluation of compound on RBC. It is a closed system where the bladder is slowly infused through a urethral catheter with saline until the occurrence of spontaneous rhythmic bladder contractions.
Test substance effects were compared to that of the reference substance, tolterodine, an […], marketed for overactive bladder in humans.
Protocol: • Animals were anesthetized with urethane (i.p.). • Ureters were ligated and sectioned close to the kidneys. • Intravesical catheter was inserted into the bladder though the urinary meatus. • Urinary meatus was closed. • A catheter was inserted into the jugular vein for compound administration. • Bladder was filled with saline until the occurrence of RBC. • After 30 min basal period, compounds were administered as described below. • The effect of the test substances was followed by 1-hour post administration.
Rats were anesthetized with an intraperitoneal administration of urethane (1 g/kg). The ureters were ligated and sectioned close to the kidneys. A catheter (0.30 and 0.70 mm of inner and outer diameters, respectively) was inserted through the urinary meatus into the bladder before urethral ligature. Another catheter (0.58 and 0.96 mm of inner and outer diameters, respectively) was inserted into the jugular vein for intravenous (i.v.) administration.
For all group, animals were treated by i.v. route (1 mL/kg) (slow bolus) after the basal period.
The vesical catheter was connected via a T-tube to a strain gauge (to measure intra-vesical pressure) and to a syringe. Isovolumetric bladder contractions were induced by stepwise injections of physiological saline at room temperature (100 μL every 5 min) until stable RBC occurred. Vesical pressure was continuously recorded. After a 30 min control period (basal values), substances or vehicle were i.v. administered. The effects of substances were followed during 60 min after administration. At the end of the experiments, animals were sacrificed by cervical dislocation.
The following parameters were analyzed: • Amplitude of RBC (mmHg) • Frequency of RBC (number/30 min) • Time of inhibition (sec)
The % variation from the basal values were calculated for RBC frequency and amplitude.
Statistical analysis and graphs were performed using GraphPad Prism® (GraphPad Software Inc., La Jolla, CA, USA). A p value <0.05 was accepted for statistical significance.

Setting [3] is: 0/60 min after i.v., Cpd (IA) 3 mg/kg (n=8), tolterodine 1 mg/kg, mean.
Setting [4] is: 0/60 min after i.v., Cpd (IA) 3 mg/kg, tolterodine 1 mg/kg, mean.
[5] abbreviates: 0/60 min after i.v., Cpd (IA) 3 mg/kg, tolterodine 1 mg/kg, mean, listed as Tolterodine.
Setting [6] is: i.v., Cpd (IA) 3 mg/kg, tolterodine 1 mg/kg, vs basal.
Where [7] appears, read: i.v., Cpd (IA) 3 mg/kg, tolterodine 1 mg/kg, vs vehicle.

In the case of `O=C(O)c1nc2ccccc2n([C@H]2C[C@H]3CCC[C@@H](C2)N3C2CC3CCCC(C3)C2)c1=O` (single isomer, unassigned) [compound of formula (I′)], the route of excretion result in series [1] is on record as “primarily excreted from the urine largely unchanged”.

For `C[C@H](Cc1ccc2c(c1)OC(C(=O)[O-])(C(=O)[O-])O2)NC[C@H](O)c1cccc(Cl)c1.[Na+].[Na+]` [CL-316,243], in the series with conscious SCI rats, the bladder capacity result is reported as “significantly increase” and the “frequency of NVC” value is on record as “reduce”.

In the case of `O=C(O)c1nc2ccccc2n(C2CC3CCCC(C2)N3C2CC3CCCC(C3)C2)c1=O` (centres unmarked) [compound of formula (I)], in series [1], the route of excretion result was “primarily excreted from the urine largely unchanged”.

`Cc1ccc(O)c([C@H](CCN(C(C)C)C(C)C)c2ccccc2)c1` [tolterodine]: in series [2] (setting [3]), the “RBC amplitude, % variation from basal” value is listed as −30.83±5.24% and the “RBC amplitude, treated period” value turned out to be 18.56 mmHg. For the same compound, the “RBC amplitude, % variation from basal” value in series [2] (0/60 min after i.v., Cpd (IA) 3 mg/kg (n=8), tolterodine 1 mg/kg, mean, listed as Tolterodine) is reported as −30.83%. Moreover, in series [2] (setting [4]), the “RBC frequency, % variation from basal” value was −33.93±10.93% and the “RBC frequency, treated period” value is on record as 15.30±2.72 nb of RBC/30 min. Besides, in series [2] (setting [5]), the “RBC frequency, % variation from basal” value is given as −33.93% and the “RBC frequency, treated period” value is listed as 15.30 nb of RBC/30 min. The Inhibition time in series [2] (after i.v., Cpd (IA) 3 mg/kg, tolterodine 1 mg/kg, mean) came to 87.04 s. In series [2], the “RBC amplitude, basal” value is listed as 27.22±2.03 mmHg and the “RBC frequency, basal” value is given as 23.00±0.87 nb of RBC/30 min. Also, in series [2] (listed as Tolterodine), the “RBC amplitude, basal” value came out at 27.22 mmHg and the “RBC frequency, basal” value is given as 23.00 nb of RBC/30 min. For the same compound, in series [2] (conclusion of Example 1), the bladder afferent activity entry was “no effect” and the bladder efferent activity entry is on record as “effectively inhibited”. In addition, in series [2] (setting [6]), the “RBC amplitude, effect versus basal” value is recorded as “significantly reduced” and the “RBC frequency, effect versus basal” value is recorded as “significantly decreased”. In series [2] (setting [7]), the “RBC amplitude (% variation), effect versus vehicle” value is “significantly reduced”; the “RBC frequency (% variation), effect versus vehicle” value is given as “did not significantly modify”; the “time of inhibition, effect versus vehicle” value is recorded as “no significant difference”.
